# What was measured:
# Assay type in all cases: in vivo
# [1] = system: umbrella sedge (Cyperus difformis); test: Test B flooded paddy test; details: for Plant response rating, Flood, Sedge, Umbrella: 250 g ai/ha, flooded paddy test, visual rating on 0 to 100 scale (0 no effect, 100 complete control) after 13 to 15 days; for Plant response rating, Sedge, Umbrella: Flood (flooded paddy test), 13 to 15 days
# Method in brief: (§1)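 Each compound is added to standing floodwater (3 cm above soil, maintained) in pots of 2-leaf-stage plants; greenhouse exposure lasts 13–15 d before visual comparison with controls on a 0–100 control scale.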
# rice (Oryza sativa) = test: Test B flooded paddy test; details: for Plant response rating, Flood, Rice: 250 g ai/ha, flooded paddy test, visual rating on 0 to 100 scale (0 no effect, 100 complete control) after 13 to 15 days; for Plant response rating, Rice: Flood (flooded paddy test), 13 to 15 days
# Method in brief: as §1
# [2] = system: barnyardgrass (Echinochloa crus-galli); test: Test B flooded paddy test; details: for Plant response rating, Flood, Barnyardgrass: 250 g ai/ha, flooded paddy test, visual rating on 0 to 100 scale (0 no effect, 100 complete control) after 13 to 15 days; for Plant response rating, Barnyardgrass: Flood (flooded paddy test), 13 to 15 days
# Method in brief: as §1
# [3] = system: ducksalad (Heteranthera limosa); test: Test B flooded paddy test; details: for Plant response rating, Flood, Ducksalad: 250 g ai/ha, flooded paddy test, visual rating on 0 to 100 scale (0 no effect, 100 complete control) after 13 to 15 days; for Plant response rating, Ducksalad: Flood (flooded paddy test), 13 to 15 days
# Method in brief: as §1
# [4] = system: lambsquarters (Chenopodium album); test: Test B pre-/postemergence plant response
# From the text: (§2) Seeds of plant species selected from blackgrass (Alopecurus myosuroides), downy bromegrass (Bromus tectorum), green foxtail (Setaria viridis), Italian ryegrass (Lolium multiflorum), wheat (Triticum aestivum), wild oat (Avena fatua), deadnettle (henbit deadnettle, Lamium amplexicaule), galium (catchweed bedstraw, Galium aparine), bermudagrass (Cynodon dactylon), Surinam grass (Brachiaria decumbens), cocklebur (Xanthium strumarium), corn (Zea mays), large crabgrass (Digitaria sanguinalis), woolly cupgrass (Eriochloa villosa), giant foxtail (Setaria faberii), goosegrass (Eleusine indica), johnsongrass (Sorghum halepense), kochia (Kochia scoparia), lambsquarters (Chenopodium album), morningglory (Ipomoea coccinea), nightshade (eastern black nightshade, Solanum ptycanthum), yellow nutsedge (Cyperus esculentus), pigweed (Amaranthus retroflexus), ragweed (common ragweed, Ambrosia elatior), Russian thistle (Salsola kali), soybean (Glycine max), sunflower (common oilseed sunflower, Helianthus annuus) and velvetleaf (Abutilon theophrasti) were planted into a blend of loam soil and sand and treated preemergence with test compounds formulated in a non-phytotoxic solvent mixture which included a surfactant.
# (§3) At the same time, plants selected from these crop and weed species and also winter barley (Hordeum vulgare), canarygrass (Phalaris minor), chickweed (Stellaria media) and windgrass (Apera spica-venti) were planted in pots containing Redi-Earth® planting medium (Scotts Company, 14111 Scottslawn Road, Marysville, Ohio 43041) comprising spaghnum peat moss, vermiculite, wetting agent and starter nutrients and treated with postemergence applications of some of the test chemicals formulated in the same manner. Plants ranged in height from 2 to 18 cm (1- to 4-leaf stage) for postemergence treatments.
# (§4) Treated plants and controls were maintained in a greenhouse for 13 to 15 days, after which time all treated plants were visually evaluated and compared to controls. Plant response ratings, summarized in Table B, are based on a scale of 0 to 100 where 0 is no effect and 100 is complete control. A dash (-) response means no test result.
# [5] = system: pigweed (Amaranthus retroflexus); test: Test B pre-/postemergence plant response
# From the text: as §2, §3, §4
# [6] = system: bermudagrass (Cynodon dactylon); test: Test B pre-/postemergence plant response
# From the text: as §2, §3, §4
# [7] = system: woolly cupgrass (Eriochloa villosa); test: Test B pre-/postemergence plant response
# From the text: as §2, §3, §4
# [8] = system: Surinam grass (Brachiaria decumbens); test: Test B pre-/postemergence plant response
# From the text: as §2, §3, §4
# [9] = system: downy bromegrass (Bromus tectorum); test: Test B pre-/postemergence plant response
# From the text: as §2, §3, §4
# [10] = system: yellow nutsedge (Cyperus esculentus); test: Test B pre-/postemergence plant response
# From the text: as §2, §3, §4
# [11] = system: wheat (Triticum aestivum); test: Test B pre-/postemergence plant response
# From the text: as §2, §3, §4
# [12] = 62 g ai/ha, scale of 0 to 100 where 0 is no effect and 100 is complete control
# [13] = 250 g ai/ha, Preemergence, 0 to 100 scale
# [14] = Postemergence, 62 g ai/ha, scale 0 (no effect) to 100 (complete control), 13 to 15 days
# [15] = Postemergence, 125 g ai/ha, visual rating after 13 to 15 days, scale 0 (no effect) to 100 (complete control)
# [16] = Postemergence, 250 g ai/ha, scale 0 to 100
# [17] = Preemergence, 31 g ai/ha, scale 0 to 100 (0 no effect, 100 complete control)
# [18] = Preemergence, 62 g ai/ha, scale 0 to 100 (0 no effect, 100 complete control)
# [19] = Preemergence, 125 g ai/ha, 0 to 100 scale
# [20] = Postemergence, 31 g ai/ha, scale 0 to 100 (0 no effect, 100 complete control)
# [21] = 31 g ai/ha, scale of 0 to 100 where 0 is no effect and 100 is complete control
# [22] = 125 g ai/ha, scale 0 to 100, 0 is no effect, 100 is complete control
# [23] = 31 g ai/ha, postemergence, scale 0 to 100, 0 is no effect, 100 is complete control
# [24] = Postemergence, 250 g ai/ha, scale 0 to 100 (0 no effect, 100 complete control)
# [25] = Preemergence, 125 g ai/ha, scale 0 to 100, 0 no effect, 100 complete control
compound,measurement,setting,value
Cc1cccc(Cl)c1-n1c(-c2ccccc2)ncc(C(=O)C2=C(O)CCCC2=O)c1=O [Compound 46],"Plant response rating, Flood, Sedge, Umbrella",[1],65
same,"Plant response rating, Sedge, Umbrella",[1]; [12],45
same,"Plant response rating, Flood, Rice",rice (Oryza sativa),10
same,"Plant response rating, Rice",rice (Oryza sativa); [12],10
same,"Plant response rating, Flood, Barnyardgrass",[2],0
same,"Plant response rating, Barnyardgrass",[2]; [12],0
same,"Plant response rating, Flood, Ducksalad",[3],20
same,"Plant response rating, Ducksalad",[3]; [12],20
same,"Plant response rating, Lambsquarters",[4]; [13],100
same,"Plant response rating, Lambsquarters",[4]; [14],85
same,"Plant response rating, Lambsquarters",[4]; [15],90
same,Lambsquarters plant response rating,[4]; [16],95
same,"Plant response rating, Lambsquarters",[4]; [17],90
same,"Plant response rating, Lambsquarters",[4]; [18],90
same,Lambsquarters plant response rating,[4]; [19],95
same,"Plant response rating, Pigweed",[5]; [13],100
same,"Plant response rating, Pigweed",[5]; [14],75
same,"Plant response rating, Pigweed",[5]; [15],80
same,"Plant response rating, Pigweed",[5]; [17],85
same,Pigweed plant response rating,[5]; [19],95
same,"Plant response rating, Bermudagrass",[6]; [13],98
same,"Plant response rating, Bermudagrass",[6]; [20],80
same,"Plant response rating, Bermudagrass",[6]; [14],85
same,"Plant response rating, Bermudagrass",[6]; [15],90
same,Bermudagrass plant response rating,[6]; [16],90
same,"Plant response rating, Bermudagrass",[6]; [17],0
same,"Plant response rating, Cupgrass, Woolly",[7]; [13],60
same,"Plant response rating, Cupgrass, Woolly",[7]; [20],10
same,"Plant response rating, Cupgrass, Woolly",[7]; [14],20
same,"Plant response rating, Cupgrass, Woolly",[7]; [15],25
same,"Cupgrass, Woolly plant response rating",[7]; [16],45
same,"Plant response rating, Cupgrass, Woolly",[7]; [17],10
same,"Plant response rating, Cupgrass, Woolly",[7]; [18],45
same,"Cupgrass, Woolly plant response rating",[7]; [19],50
same,"Plant response rating, Surinam Grass",[8]; [13],90
same,"Plant response rating, Surinam Grass",[8]; [14],75
same,"Plant response rating, Surinam Grass",[8]; [15],80
same,"Plant response rating, Surinam Grass",[8]; [17],0
same,Surinam Grass plant response rating,[8]; [19],75
same,"Plant response rating, Bromegrass, Downy",[9]; [13],0
same,"Plant response rating, Bromegrass, Downy",[9]; [20],0
same,"Plant response rating, Bromegrass, Downy",[9]; [14],5
same,"Plant response rating, Bromegrass, Downy",[9]; [15],10
same,"Bromegrass, Downy plant response rating",[9]; [16],25
same,"Plant response rating, Bromegrass, Downy",[9]; [17],0
same,"Plant response rating, Bromegrass, Downy",[9]; [18],0
same,"Bromegrass, Downy plant response rating",[9]; [19],0
same,"Plant response rating, Nutsedge, Yellow",[10]; [13],90
same,"Plant response rating, Nutsedge, Yellow",[10]; [14],70
same,"Plant response rating, Nutsedge, Yellow",[10]; [15],70
same,"Plant response rating, Nutsedge, Yellow",[10]; [17],25
same,"Nutsedge, Yellow plant response rating",[10]; [19],80
same,"Plant response rating, Wheat",[11]; [13],0
same,"Plant response rating, Wheat",[11]; [14],0
same,"Plant response rating, Wheat",[11]; [15],0
same,"Plant response rating, Wheat",[11]; [17],0
same,Wheat plant response rating,[11]; [19],0
Cc1cc(-n2c(-c3ccccc3)ncc(C(=O)C3=C(O)CCCC3=O)c2=O)ccc1F [Compound 53],"Plant response rating, Flood, Sedge, Umbrella",[1],90
same,"Plant response rating, Sedge, Umbrella",[1]; [21],40
same,"Plant response rating, Sedge, Umbrella",[1]; [12],85
same,"Plant response rating, Sedge, Umbrella",[1]; [22],90
same,"Plant response rating, Flood, Rice",rice (Oryza sativa),85
same,"Plant response rating, Rice",rice (Oryza sativa); [21],15
same,"Plant response rating, Rice",rice (Oryza sativa); [12],20
same,"Plant response rating, Rice",rice (Oryza sativa); [22],60
same,"Plant response rating, Flood, Barnyardgrass",[2],75
same,"Plant response rating, Barnyardgrass",[2]; [21],20
same,"Plant response rating, Barnyardgrass",[2]; [12],40
same,"Plant response rating, Barnyardgrass",[2]; [22],55
same,"Plant response rating, Flood, Ducksalad",[3],75
same,"Plant response rating, Ducksalad",[3]; [21],40
same,"Plant response rating, Ducksalad",[3]; [12],65
same,"Plant response rating, Ducksalad",[3]; [22],75
same,"Plant response rating, Lambsquarters",[4]; [23],90
same,"Plant response rating, Lambsquarters",[4]; [13],100
same,"Plant response rating, Lambsquarters",[4]; [14],95
same,"Plant response rating, Lambsquarters",[4]; [15],98
same,"Plant response rating, Lambsquarters",[4]; [24],98
same,"Plant response rating, Lambsquarters",[4]; [17],98
same,"Plant response rating, Lambsquarters",[4]; [18],100
same,"Plant response rating, Lambsquarters",[4]; [25],100
same,"Plant response rating, Pigweed",[5]; [23],85
same,"Plant response rating, Pigweed",[5]; [14],95
same,"Plant response rating, Pigweed",[5]; [15],100
same,"Plant response rating, Pigweed",[5]; [24],100
same,"Plant response rating, Pigweed",[5]; [17],95
same,"Plant response rating, Pigweed",[5]; [18],98
same,"Plant response rating, Pigweed",[5]; [25],100
same,"Plant response rating, Bermudagrass",[6]; [23],90
same,"Plant response rating, Bermudagrass",[6]; [13],100
same,"Plant response rating, Bermudagrass",[6]; [14],95
same,"Plant response rating, Bermudagrass",[6]; [15],98
same,"Plant response rating, Bermudagrass",[6]; [24],98
same,"Plant response rating, Bermudagrass",[6]; [18],100
same,"Plant response rating, Bermudagrass",[6]; [25],100
same,"Plant response rating, Cupgrass, Woolly",[7]; [23],65
same,"Plant response rating, Cupgrass, Woolly",[7]; [13],95
same,"Plant response rating, Cupgrass, Woolly",[7]; [14],90
same,"Plant response rating, Cupgrass, Woolly",[7]; [15],95
same,"Plant response rating, Cupgrass, Woolly",[7]; [24],98
same,"Plant response rating, Cupgrass, Woolly",[7]; [17],0
same,"Plant response rating, Cupgrass, Woolly",[7]; [18],55
same,"Plant response rating, Cupgrass, Woolly",[7]; [25],85
same,"Plant response rating, Surinam Grass",[8]; [23],85
same,"Plant response rating, Surinam Grass",[8]; [14],95
same,"Plant response rating, Surinam Grass",[8]; [15],98
same,"Plant response rating, Surinam Grass",[8]; [24],98
same,"Plant response rating, Surinam Grass",[8]; [17],75
same,"Plant response rating, Surinam Grass",[8]; [18],85
same,"Plant response rating, Surinam Grass",[8]; [25],100
same,"Plant response rating, Bromegrass, Downy",[9]; [23],35
same,"Plant response rating, Bromegrass, Downy",[9]; [13],30
same,"Plant response rating, Bromegrass, Downy",[9]; [14],50
same,"Plant response rating, Bromegrass, Downy",[9]; [15],55
same,"Plant response rating, Bromegrass, Downy",[9]; [24],60
same,"Plant response rating, Bromegrass, Downy",[9]; [17],0
same,"Plant response rating, Bromegrass, Downy",[9]; [18],0
same,"Plant response rating, Bromegrass, Downy",[9]; [25],5
same,"Plant response rating, Nutsedge, Yellow",[10]; [23],20
same,"Plant response rating, Nutsedge, Yellow",[10]; [14],65
same,"Plant response rating, Nutsedge, Yellow",[10]; [15],75
same,"Plant response rating, Nutsedge, Yellow",[10]; [24],75
same,"Plant response rating, Nutsedge, Yellow",[10]; [17],65
same,"Plant response rating, Nutsedge, Yellow",[10]; [18],80
same,"Plant response rating, Nutsedge, Yellow",[10]; [25],90
same,"Plant response rating, Wheat",[11]; [23],20
same,"Plant response rating, Wheat",[11]; [14],25
same,"Plant response rating, Wheat",[11]; [15],30
same,"Plant response rating, Wheat",[11]; [24],50
same,"Plant response rating, Wheat",[11]; [17],0
same,"Plant response rating, Wheat",[11]; [18],0
same,"Plant response rating, Wheat",[11]; [25],0
